Assay results reported in BindingDB's records for doi:10.1021/acs.jmedchem.7b01709 (Kobe Gakuin University, 2018).

Experiments:
[1] = Inhibition of protease L10F/V32I/M46I/I47V/Q58E/I84V mutant in HIV1 A17 infected in human MT4 cells assessed as reduction in virus-induced cytopathic effect after 5 days by MTT assay
[2] = Inhibition of DRV-resistant protease V32I/L33F/I54M/I84V mutant in HIV1 transfected in 293T cells after 48 hrs by lentiviral vector-based luciferase reporter gene assay
[3] = Inhibition of DRV-resistant protease V32I/L33F/I54M/V82I mutant in HIV1 transfected in 293T cells after 48 hrs by lentiviral vector-based luciferase reporter gene assay

| Structure (SMILES) | EC50 [1] [nM] | EC50 [2] [nM] | EC50 [3] [nM] |
| --- | --- | --- | --- |
| Cc1cccc(C)c1CNC(=O)[C@H]1N(C(=O)[C@@H](O)[C@H](Cc2ccccc2)NC(=O)[C@@H](NC(=O)c2cc3ccccc3o2)[C@H]2CCOC2)CSC1(C)C | 678 | – | – |
| Cc1cccc(C)c1CNC(=O)[C@H]1N(C(=O)[C@@H](O)[C@H](Cc2ccccc2)NC(=O)[C@@H](NC(=O)c2cc3ccccc3o2)C(C)C)CSC1(C)C | 1100 | – | – |
| Cc1cccc(C)c1CNC(=O)[C@H]1N(C(=O)[C@@H](O)[C@H](Cc2ccccc2)NC(=O)[C@@H](NC(=O)COc2cccc(N(C)C)c2)[C@H]2CCOC2)CSC1(C)C | 165 | – | – |
| Cc1cccc(C)c1CNC(=O)[C@H]1N(C(=O)[C@@H](O)[C@H](Cc2ccccc2)NC(=O)[C@H](CC(N)=O)NC(=O)c2cc3ccccc3o2)CSC1(C)C | 61 | – | – |
| Cc1ccccc1CNC(=O)[C@H]1N(C(=O)[C@@H](O)[C@H](Cc2ccccc2)NC(=O)[C@@H](NC(=O)c2cnc3ccccc3n2)[C@H]2CCOC2)CSC1(C)C | 95 | – | – |
| Cc1cccc(C)c1CNC(=O)[C@H]1N(C(=O)[C@@H](O)[C@H](Cc2ccccc2)NC(=O)[C@@H](NC(=O)COc2cccc(Nc3ccccc3)c2)[C@H]2CCOC2)CSC1(C)C | 226 | – | – |
| COc1cccc2cc(C(=O)N[C@H](C(=O)N[C@@H](Cc3ccccc3)[C@H](O)C(=O)N3CSC(C)(C)[C@H]3C(=O)NCc3c(C)cccc3C)[C@H]3CCOC3)oc12 | 25 | 1.2 | 0.3 |
| COc1cccc2cc(C(=O)N[C@@H](CC(N)=O)C(=O)N[C@@H](Cc3ccccc3)[C@H](O)C(=O)N3CSC(C)(C)[C@H]3C(=O)NCc3c(C)cccc3C)oc12 | 84 | – | – |
| COc1cccc2cc(C(=O)N[C@H](C(=O)N[C@@H](Cc3ccccc3)[C@H](O)C(=O)N3CSC(C)(C)[C@H]3C(=O)NCc3c(C)cccc3C)C(C)C)oc12 | 309 | – | – |
| Cc1ccccc1CNC(=O)[C@H]1N(C(=O)[C@@H](O)[C@H](Cc2ccccc2)NC(=O)c2cccc(O)c2C)CSC1(C)C [AG1776] | 2730 | – | – |
